Measurements as given in patent US12215140B2, “Method of stabilizing protein contained in specimen and solution for stabilizing protein contained in specimen” (EIKEN KAGAKU KABUSHIKI KAISHA, priority 2018, dated 2025).
“And” between values parts separate entries of the source, which are not always exact repeats. Equal values may be shown once.

Molecular target: hemoglobin (Homo sapiens, UniProt P68871+P69905)
Experiment: Stability of hemoglobin in samples preserved at 37° C. in preservation solution containing no haptoglobin, Hb measured by latex agglutination method (Examples 8, 9 and Table 10)
Procedure: Preservation solutions were prepared with the addition of 40 mmol/L HEPES (pH 6.8), 0.1% BSA, 0.1% NaN3, and 0 to 2.5 mmol/L phenylboronic acid. […] Samples obtained by adding hemoglobin-added fecal specimens to the preservation solutions so that the fecal concentration would be 0.5% were preserved at 37° C. for 0, 16, 38, and 62 hours. The fecal specimens were added with hemoglobin having an amount such that the hemoglobin concentration in the samples would be about 300 μg/L. Instead of the fecal specimens to which hemoglobin was added, samples containing no fecal specimens, in which hemoglobin was added to the preservation solutions so that the hemoglobin concentration in the samples would be 300 μg/L, were similarly preserved. The hemoglobin (Hb) concentrations (μg/L) in the preserved samples were measured by the latex agglutination method using the same measurement reagent and measurement device as in Example 1.
The concentration of phenylboronic acid in the preservation solutions of Example 8 was fixed to 0.5 mmol/L, preservation solutions to which sorbitol or sucrose was further added at 10 to 250 mmol/L or trehalose, glucose, fructose, or mannitol was further added at 50 to 100 mmol/L were prepared, and testing was conducted in the same manner as in Example 8. In addition, preservation solutions to which the phenylboronic acid was added but no sugar was added were prepared, preservation solutions to which the phenylboronic acid and sugar were not added were prepared for the comparative examples, and testing was conducted in the same manner.
For comparative examples, preservation solutions to which no arylboronic acid was added were prepared, and testing was conducted in the same manner.

[1] = Feces 1, 0 h at 37° C., arylboronic acid 0.5 mmol/L, no sugar
[2] = Feces 1, 16 h at 37° C., arylboronic acid 0.5 mmol/L, no sugar
[3] = Feces 1, 38 h at 37° C., arylboronic acid 0.5 mmol/L, no sugar
[4] = Feces 1, 62 h at 37° C., arylboronic acid 0.5 mmol/L, no sugar
[5] = Feces 1, arylboronic acid 0.5 mmol/L, 0 h at 37° C.
[6] = Feces 1, arylboronic acid 0.5 mmol/L, 16 h at 37° C.
[7] = Feces 1, arylboronic acid 0.5 mmol/L, 38 h at 37° C.
[8] = Feces 1, arylboronic acid 0.5 mmol/L, 62 h at 37° C.
[9] = Feces 2, 0 h at 37° C., arylboronic acid 0.5 mmol/L, no sugar
[10] = Feces 2, 16 h at 37° C., arylboronic acid 0.5 mmol/L, no sugar
[11] = Feces 2, 38 h at 37° C., arylboronic acid 0.5 mmol/L, no sugar
[12] = Feces 2, 62 h at 37° C., arylboronic acid 0.5 mmol/L, no sugar
[13] = Feces 2, arylboronic acid 0.5 mmol/L, 0 h at 37° C.
[14] = Feces 2, arylboronic acid 0.5 mmol/L, 16 h at 37° C.
[15] = Feces 2, arylboronic acid 0.5 mmol/L, 38 h at 37° C.
[16] = Feces 2, arylboronic acid 0.5 mmol/L, 62 h at 37° C.
[17] = Feces 3, 0 h at 37° C., arylboronic acid 0.5 mmol/L, no sugar
[18] = Feces 3, 16 h at 37° C., arylboronic acid 0.5 mmol/L, no sugar
[19] = Feces 3, 38 h at 37° C., arylboronic acid 0.5 mmol/L, no sugar
[20] = Feces 3, 62 h at 37° C., arylboronic acid 0.5 mmol/L, no sugar
[21] = Feces 3, arylboronic acid 0.5 mmol/L, 0 h at 37° C.
[22] = Feces 3, arylboronic acid 0.5 mmol/L, 16 h at 37° C.
[23] = Feces 3, arylboronic acid 0.5 mmol/L, 38 h at 37° C.
[24] = Feces 3, arylboronic acid 0.5 mmol/L, 62 h at 37° C.
[25] = No feces, 0 h at 37° C., arylboronic acid 0.5 mmol/L, no sugar
[26] = No feces, 16 h at 37° C., arylboronic acid 0.5 mmol/L, no sugar
[27] = No feces, 38 h at 37° C., arylboronic acid 0.5 mmol/L, no sugar
[28] = No feces, 62 h at 37° C., arylboronic acid 0.5 mmol/L, no sugar
[29] = No feces, arylboronic acid 0.5 mmol/L, 0 h at 37° C.
[30] = No feces, arylboronic acid 0.5 mmol/L, 16 h at 37° C.
[31] = No feces, arylboronic acid 0.5 mmol/L, 38 h at 37° C.
[32] = No feces, arylboronic acid 0.5 mmol/L, 62 h at 37° C.
[33] = Feces 1, 0 h at 37° C., no phenylboronic acid, sugar 100 mmol/L
[34] = Feces 1, 16 h at 37° C., no phenylboronic acid, sugar 100 mmol/L
[35] = Feces 1, 38 h at 37° C., no phenylboronic acid, sugar 100 mmol/L
[36] = Feces 1, 62 h at 37° C., no phenylboronic acid, sugar 100 mmol/L
[37] = Feces 2, 0 h at 37° C., no phenylboronic acid, sugar 100 mmol/L
[38] = Feces 2, 16 h at 37° C., no phenylboronic acid, sugar 100 mmol/L
[39] = Feces 2, 38 h at 37° C., no phenylboronic acid, sugar 100 mmol/L
[40] = Feces 2, 62 h at 37° C., no phenylboronic acid, sugar 100 mmol/L
[41] = Feces 3, 0 h at 37° C., no phenylboronic acid, sugar 100 mmol/L
[42] = Feces 3, 16 h at 37° C., no phenylboronic acid, sugar 100 mmol/L
[43] = Feces 3, 38 h at 37° C., no phenylboronic acid, sugar 100 mmol/L
[44] = Feces 3, 62 h at 37° C., no phenylboronic acid, sugar 100 mmol/L
[45] = No feces, 0 h at 37° C., no phenylboronic acid, sugar 100 mmol/L
[46] = No feces, 16 h at 37° C., no phenylboronic acid, sugar 100 mmol/L
[47] = No feces, 38 h at 37° C., no phenylboronic acid, sugar 100 mmol/L
[48] = No feces, 62 h at 37° C., no phenylboronic acid, sugar 100 mmol/L

Sequence of hemoglobin (P69905 2-142): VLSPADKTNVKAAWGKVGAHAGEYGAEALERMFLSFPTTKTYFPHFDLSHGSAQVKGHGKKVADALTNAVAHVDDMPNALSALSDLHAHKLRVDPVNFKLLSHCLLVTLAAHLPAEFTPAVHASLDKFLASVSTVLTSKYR
Sequence of hemoglobin (P68871 2-147): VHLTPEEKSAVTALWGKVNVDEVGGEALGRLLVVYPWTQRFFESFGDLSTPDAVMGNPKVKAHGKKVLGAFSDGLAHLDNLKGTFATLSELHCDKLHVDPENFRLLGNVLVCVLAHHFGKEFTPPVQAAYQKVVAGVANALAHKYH

SMILES: OB(O)c1cccc(O)c1 [3H-PBA, 3-hydroxyphenylboronic acid]
- Hb concentration [1]: 298 µg/L
- Recovery ratio with respect to Hb after 0 days [1]: 100%
- Hb concentration [2]: 171 µg/L
- Recovery ratio with respect to Hb after 0 days [2]: 57%
- Hb concentration [3]: 79 µg/L
- Recovery ratio with respect to Hb after 0 days [3]: 26%
- Hb concentration [4]: 25 µg/L
- Recovery ratio with respect to Hb after 0 days [4]: 8%
- Hb concentration [5]: 298 µg/L
- Recovery ratio with respect to Hb after 0 days [5]: 100%
- Hb concentration [6]: 171 µg/L
- Recovery ratio with respect to Hb after 0 days [6]: 57%
- Hb concentration [7]: 79 µg/L
- Recovery ratio with respect to Hb after 0 days [7]: 26%
- Hb concentration [8]: 25 µg/L
- Recovery ratio with respect to Hb after 0 days [8]: 8%
- Hb concentration [9]: 295 µg/L
- Recovery ratio with respect to Hb after 0 days [9]: 100%
- Hb concentration [10]: 95 µg/L
- Recovery ratio with respect to Hb after 0 days [10]: 32%
- Hb concentration [11]: 11 µg/L
- Recovery ratio with respect to Hb after 0 days [11]: 4%
- Hb concentration [12]: 0 µg/L
- Recovery ratio with respect to Hb after 0 days [12]: 0%
- Hb concentration [13]: 295 µg/L
- Recovery ratio with respect to Hb after 0 days [13]: 100%
- Hb concentration [14]: 95 µg/L
- Recovery ratio with respect to Hb after 0 days [14]: 32%
- Hb concentration [15]: 11 µg/L
- Recovery ratio with respect to Hb after 0 days [15]: 4%
- Hb concentration [16]: 0 µg/L
- Recovery ratio with respect to Hb after 0 days [16]: 0%
- Hb concentration [17]: 295 µg/L
- Recovery ratio with respect to Hb after 0 days [17]: 100%
- Hb concentration [18]: 106 µg/L
- Recovery ratio with respect to Hb after 0 days [18]: 36%
- Hb concentration [19]: 9 µg/L
- Recovery ratio with respect to Hb after 0 days [19]: 3%
- Hb concentration [20]: 0 µg/L
- Recovery ratio with respect to Hb after 0 days [20]: 0%
- Hb concentration [21]: 295 µg/L
- Recovery ratio with respect to Hb after 0 days [21]: 100%
- Hb concentration [22]: 106 µg/L
- Recovery ratio with respect to Hb after 0 days [22]: 36%
- Hb concentration [23]: 9 µg/L
- Recovery ratio with respect to Hb after 0 days [23]: 3%
- Hb concentration [24]: 0 µg/L
- Recovery ratio with respect to Hb after 0 days [24]: 0%
- Hb concentration [25]: 306 µg/L
- Recovery ratio with respect to Hb after 0 days [25]: 100%
- Hb concentration [26]: 282 µg/L
- Recovery ratio with respect to Hb after 0 days [26]: 92%
- Hb concentration [27]: 263 µg/L
- Recovery ratio with respect to Hb after 0 days [27]: 86%
- Hb concentration [28]: 264 µg/L
- Recovery ratio with respect to Hb after 0 days [28]: 86%
- Hb concentration [29]: 306 µg/L
- Recovery ratio with respect to Hb after 0 days [29]: 100%
- Hb concentration [30]: 282 µg/L
- Recovery ratio with respect to Hb after 0 days [30]: 92%
- Hb concentration [31]: 263 µg/L
- Recovery ratio with respect to Hb after 0 days [31]: 86%
- Hb concentration [32]: 264 µg/L
- Recovery ratio with respect to Hb after 0 days [32]: 86%

SMILES: O=C(CO)[C@@H](O)[C@H](O)[C@H](O)CO [Fructose, fructose]
- Hb concentration [33]: 281 µg/L
- Recovery ratio with respect to Hb after 0 days [33]: 100%
- Hb concentration [34]: 134 µg/L
- Recovery ratio with respect to Hb after 0 days [34]: 48%
- Hb concentration [35]: 35 µg/L
- Recovery ratio with respect to Hb after 0 days [35]: 12%
- Hb concentration [36]: 0 µg/L
- Recovery ratio with respect to Hb after 0 days [36]: 0%
- Hb concentration [37]: 268 µg/L
- Recovery ratio with respect to Hb after 0 days [37]: 100%
- Hb concentration [38]: 60 µg/L
- Recovery ratio with respect to Hb after 0 days [38]: 22%
- Hb concentration [39]: 1 µg/L
- Recovery ratio with respect to Hb after 0 days [39]: 0%
- Hb concentration [40]: 0 µg/L
- Recovery ratio with respect to Hb after 0 days [40]: 0%
- Hb concentration [41]: 263 µg/L and 269 µg/L
- Recovery ratio with respect to Hb after 0 days [41]: 100%
- Hb concentration [42]: 51 µg/L and 57 µg/L
- Recovery ratio with respect to Hb after 0 days [42]: 19% and 21%
- Hb concentration [43]: 0 µg/L
- Recovery ratio with respect to Hb after 0 days [43]: 0%
- Hb concentration [44]: 0 µg/L
- Recovery ratio with respect to Hb after 0 days [44]: 0%
- Hb concentration [45]: 284 µg/L
- Recovery ratio with respect to Hb after 0 days [45]: 100%
- Hb concentration [46]: 246 µg/L
- Recovery ratio with respect to Hb after 0 days [46]: 86%
- Hb concentration [47]: 233 µg/L
- Recovery ratio with respect to Hb after 0 days [47]: 82%
- Hb concentration [48]: 230 µg/L
- Recovery ratio with respect to Hb after 0 days [48]: 81%
- recovery ratio of hemoglobin in the sample (sugar further added to phenylboronic acid 0.5 mmol/L, no haptoglobin, Feces 1, Feces 2, Feces 3): further improved
